Converted amounts (≈) assume the structure as drawn. The source made the active and inactive calls. No cut-off for these calls is given here.

In general, IC50 refers to the concentration at which inhibition is half-maximal.

One test deals with HCT-116. The test can be described thus: Cytotoxicity against human HCT116 cells. It counts as functional, cell-based.
The test system of test [1] is Escherichia coli. The test can be described thus: Antimicrobial activity against Escherichia coli at 5 ug/disk. The class given is functional, organism-based.
Test [2] relates to Staphylococcus aureus. The test can be described thus: Antimicrobial activity against Staphylococcus aureus at 10 ug/disk. The class given is functional, organism-based.
Test [3] deals with Staphylococcus aureus. The test can be described thus: Antimicrobial activity against Staphylococcus aureus at 5 ug/disk. The class given is functional, organism-based.
Test [4] relates to Staphylococcus aureus. The test can be described thus: Antimicrobial activity against Staphylococcus aureus at 1 ug/disk. The class given is functional, organism-based.
In test [5] the test system is Escherichia coli. Briefly: Antimicrobial activity against Escherichia coli at 10 ug/disk. The class given is functional, organism-based.
Test [6] concerns Escherichia coli. Briefly: Antimicrobial activity against Escherichia coli at 1 ug/disk. It counts as functional, organism-based.

`CC(C)=C1[C@H]2CC/C(C)=C/CC/C(C)=C/C[C@]2(C)C[C@@H]1O` (relative stereo) displayed an IC50 with HCT-116 of 9 µg/mL (≈ 31.2 µM). In addition, the outcome with Escherichia coli [1], in the test on Staphylococcus aureus [2], in the test with Staphylococcus aureus [3], with Staphylococcus aureus [4], in the test on Escherichia coli [5] and with Escherichia coli [6] was inactive.
In the case of `CC(C)=C1[C@H](O)C[C@@]2(C)C/C=C(\C)CC/C=C(\C)CC[C@H]12` (relative stereo) [ISOPALOMINOL], it took 30 µg/mL (≈ 104 µM) to reach half-maximal inhibition in the test with HCT-116 (IC50). Also, the result in the test with Escherichia coli [1], with Staphylococcus aureus [2], with Staphylococcus aureus [3], in the test with Staphylococcus aureus [4], in the test with Escherichia coli [5] and with Escherichia coli [6] was inactive.
Molecule `CC(C)=C1C(=O)C[C@@]2(C)C/C=C(\C)CC/C=C(\C)CC[C@H]12` [DOLABELLANE] registered an IC50 in the test on HCT-116 of 10 µg/mL (≈ 34.9 µM). Also, the outcome in the test on Escherichia coli [1], in the test on Staphylococcus aureus [2], with Staphylococcus aureus [3], in the test with Staphylococcus aureus [4], in the test on Escherichia coli [5] and in the test on Escherichia coli [6] was inactive.
In turn, `C/C1=C\C[C@]2(C)CC=C(C(C)(C)O)[C@H]2CC/C(C)=C/CC1` [PALOMINOL] yielded an IC50 with HCT-116 of 10 µg/mL (≈ 34.7 µM). In addition, the result with Escherichia coli [1], in the test on Staphylococcus aureus [2], in the test with Staphylococcus aureus [3], in the test on Staphylococcus aureus [4], in the test on Escherichia coli [5] and with Escherichia coli [6] was inactive.

For the origin of these results see ChEMBL document CHEMBL1147390, “The structure of palominol by interpretation of two-dimensional NMR shift correlation experiments: isolation and structure determination of isopalominol” (J Nat Prod, 1993).
